These are literature values, as cited in the PKSmart pharmacokinetics tables (Seal et al. 2025).

The nature of this data set: Lombardo, Berellini, Obach 2018, Drug Metab Dispos 46:1466, doi 10.1124/dmd.118.082966. The conditions noted are these: human; for MRT / Vd / clearance / half-life: in vivo, iv; for fraction unbound: plasma.

Structures are written as SMILES.

The MRT is the average time that molecules of a dose stay in the body. Broadly, the Vd is the apparent volume that relates the amount in the body to the concentration in plasma or blood. For orientation: clearance means a measure of how efficiently the substance is removed, as volume per time. In general, half-life refers to the time needed for the level to fall by half in the phase considered. On to `CN1[C@@H]2CC[C@H]1C[C@@H](OC(=O)c1c[nH]c3ccccc13)C2`, for which the MRT is 6.3 h, the volume of distribution (Vd) is 9.7 L/kg, the clearance is 26 mL/min/kg and the half-life is 336 min.
On to `Cc1nnc(SCC2=C(C(=O)O)N3C(=O)C(NC(=O)Cn4cc(Cl)c(=O)c(Cl)c4)[C@H]3SC2)s1` (some centres undefined), for which the MRT is 2.3 h, the distribution volume (Vd) is 0.13 L/kg, the clearance was 0.95 mL/min/kg and the half-life is 115 min.
Usually fraction unbound stands for free concentration divided by total concentration. In the case of `CCCN[C@H]1CCc2nc(N)sc2C1`, the mean residence time (MRT) is 16.1 h, the Vd was 7 L/kg, the clearance is 7.2 mL/min/kg and the half-life was 744 min. Further, the free fraction (fraction unbound) was 0.85.
Take `CC(C(=O)O)c1ccc2c(c1)[nH]c1ccc(Cl)cc12` (centres undefined): the MRT is 7.2 h, the Vd is 0.22 L/kg, the clearance was 0.51 mL/min/kg and the half-life was 594 min. In addition, the fraction unbound was 0.001.
Take `CO/N=C1\CN(c2nc3c(cc2F)c(=O)c(C(=O)O)cn3C2CC2)CC1CN` (centres undefined): the MRT is 8.1 h, the volume of distribution (Vd) was 3.52 L/kg, the clearance is 7.2 mL/min/kg and the half-life was 498 min. Moreover, the fraction unbound is 0.3.
With `CC(C(=O)O)c1cccc(Oc2ccccc2)c1` (centres undefined), the MRT was 2.8 h, the distribution volume (Vd) is 0.1 L/kg, the clearance is 0.6 mL/min/kg and the half-life is 134 min. The free fraction (fraction unbound) was 0.02.
As to `COc1ccc2c(c1)[C@@H]1C[C@]1(C(=O)N1[C@@H]3CC[C@H]1CN(C)C3)Cn1c-2c(C2CCCCC2)c2ccc(C(=O)NS(=O)(=O)N(C)C)cc21`, the mean residence time (MRT) is 6.38 h, the Vd is 0.5 L/kg, the clearance is 1.33 mL/min/kg and the half-life is 323 min. Also, the free fraction (fraction unbound) was 0.01.
With `Cc1onc(-c2ccccc2)c1C(=O)NC1C(=O)N2C(C(=O)O)C(C)(C)S[C@H]12` (some centres undefined), the mean residence time MRT is 0.5 h, the Vd is 0.19 L/kg, the clearance was 6.3 mL/min/kg and the half-life is 42 min. Moreover, the fraction unbound is 0.07.
On to `O=NNc1cnccn1`, for which the MRT was 0.29 h, the Vd was 0.31 L/kg, the clearance was 15.1 mL/min/kg and the half-life is 22.8 min.
For the compound `CC(C)(O)c1ccccc1CC[C@@H](SCC1(CC(=O)O)CC1)c1cccc(/C=C/c2ccc3ccc(Cl)cc3n2)c1`, the MRT was 3.8 h, the Vd was 0.15 L/kg, the clearance was 0.68 mL/min/kg and the half-life is 300 min.
For the compound `C=C1C=CC=C(C)[C@H](O)[C@@H](C)[C@@H](O)[C@@H](C)[C@H](OC(C)=O)[C@H](C)[C@@H](OC)/C=C/O[C@@]2(C)Oc3c(C)c(O)c4c(O)c(c5c(c4c3C2=O)NC2(CCN(CC(C)C)CC2)N5)NC1=O`, the MRT is 65 h, the distribution volume (Vd) was 9.3 L/kg, the clearance is 2.4 mL/min/kg and the half-life was 2220 min.
On to `OCCN1CCN(CCCN2c3ccccc3Sc3ccc(Cl)cc32)CC1`, for which the MRT is 11 h, the Vd is 18 L/kg, the clearance is 27 mL/min/kg and the half-life was 564 min. Further, the fraction unbound is 0.07.
Consider `CC1=NS(=O)(=O)c2cc(Cl)ccc2N1`, for which the MRT is 58 h, the Vd is 0.21 L/kg, the clearance is 0.06 mL/min/kg and the half-life is 2880 min.
On to `Nc1nc(=O)c2c([nH]1)NC[C@H](CNc1ccc(C(=O)NC(CCC(=O)O)C(=O)O)cc1)N2C=O` (some centres undefined), for which the MRT was 1.1 h, the Vd was 0.27 L/kg, the clearance was 4.1 mL/min/kg and the half-life was 66 min.
Turning to `CCCn1c(=O)c2[nH]c(C34CC5CC(CC3C5)C4)nc2n(CCC)c1=O`, the MRT was 14.1 h, the Vd is 4.3 L/kg, the clearance was 5 mL/min/kg and the half-life is 1090 min.
Turning to `O=C(Cn1ccnc1[N+](=O)[O-])NCC(O)C(F)(F)F` (centres undefined), the mean residence time (MRT) is 3.86 h, the Vd was 0.69 L/kg, the clearance was 3 mL/min/kg and the half-life was 207 min.
On to `CCNCC(O)c1cccc(O)c1` (centres undefined), for which the MRT is 2.5 h, the volume of distribution (Vd) was 2.1 L/kg, the clearance was 14 mL/min/kg and the half-life was 132 min.
`CN(C)CC/C=C1\c2ccccc2COc2ccccc21`: the mean residence time (MRT) is 15 h, the Vd is 12 L/kg, the clearance was 14 mL/min/kg and the half-life was 900 min.
On to `CCCOC(C(=O)OC1CCN(C)CC1)(c1ccccc1)c1ccccc1`, for which the MRT is 15.4 h, the volume of distribution (Vd) is 2.73 L/kg, the clearance was 2.94 mL/min/kg and the half-life was 912 min. Besides, the fraction unbound was 0.1.
`COc1cc(CC(=O)NCC(=O)N(CCC(=O)O)Cc2ccc(OC)c(OC)c2)ccc1NC(=O)Nc1ccccc1C`: the mean residence time (MRT) was 0.38 h, the volume of distribution (Vd) was 0.25 L/kg, the clearance is 11 mL/min/kg and the half-life was 96 min.
With `Cc1ccc(-n2nccn2)c(C(=O)N2CCN(c3nc4cc(Cl)ccc4o3)CC[C@H]2C)c1`, the mean residence time MRT was 13.8 h, the Vd is 0.69 L/kg, the clearance was 0.84 mL/min/kg and the half-life is 622 min. The fraction unbound is 0.05.
As for `Nc1ccn([C@@H]2C=C(CO)[C@@H](O)[C@H]2O)c(=O)n1`, the clearance was 3.61 mL/min/kg.
On to `CC(C)=CCN1CC[C@]2(C)c3cc(O)ccc3C[C@H]1C2C` (some centres undefined), for which the unbound share (fraction unbound) was 0.39.
Regarding `O=C(/C=C/c1ccc(O)c(O)c1)O[C@@H]1[C@H](O)C[C@@](O)(C(=O)O)C[C@H]1OC(=O)/C=C/c1ccc(O)c(O)c1`, the mean residence time MRT was 0.3 h, the Vd is 0.63 L/kg, the clearance is 34.6 mL/min/kg and the half-life is 34.2 min.
Consider `C[C@H]1CN(c2c(F)cc3c(=O)c(C(=O)O)cn(C4CC4)c3c2OC(F)F)CCN1`, for which the MRT is 7.1 h, the Vd is 1.1 L/kg, the clearance was 2.7 mL/min/kg and the half-life was 354 min.
For the compound `NC(C(=O)NC1C(=O)N2C(C(=O)O)=C(CSc3c[nH]nn3)CS[C@H]12)c1ccc(O)cc1` (some centres undefined), the mean residence time (MRT) is 1.1 h, the Vd is 0.22 L/kg, the clearance was 3.3 mL/min/kg and the half-life is 72 min.
`N=C(N)c1ccc(CNC(=O)C2CCN2C(=O)C(NCC(=O)O)C2CCCCC2)cc1` (centres undefined): the MRT is 2 h, the volume of distribution (Vd) is 0.23 L/kg, the clearance is 1.9 mL/min/kg and the half-life is 96 min.
Take `Cc1cccc(C)c1OCC(C)N` (centres undefined): the MRT was 12 h, the Vd was 5.9 L/kg, the clearance was 8.3 mL/min/kg and the half-life is 594 min. Also, the fraction unbound was 0.36.
As for `c1ccc(CN(CC2=NCCN2)c2ccccc2)cc1`, the mean residence time MRT is 3.45 h, the volume of distribution (Vd) was 3.9 L/kg, the clearance is 19.7 mL/min/kg and the half-life is 137 min.
Turning to `CC[C@H]1OC(=O)C(C)[C@@H](O[C@H]2C[C@@](C)(OC)[C@@H](O)[C@H](C)O2)[C@H](C)[C@@H](O[C@@H]2O[C@H](C)C[C@H](N(C)C)[C@H]2O)[C@](C)(O)C[C@@H](C)CN(C)[C@H](C)[C@@H](O)[C@]1(C)O` (some centres undefined), the MRT is 57 h, the Vd is 33 L/kg, the clearance was 10 mL/min/kg and the half-life was 4140 min.
For `COC(=O)C1(OC(=O)c2cncn2[C@H](C)c2ccccc2)CC1`, the clearance is 50.1 mL/min/kg and the half-life is 14.4 min.
With `NC(CCC(=O)NC(Cc1ccc(O)c(O)c1)C(=O)O)C(=O)O` (centres undefined), the MRT is 0.74 h, the Vd is 0.21 L/kg, the clearance is 4.6 mL/min/kg and the half-life was 30 min.
Turning to `CC(C)NCC(O)c1cc(O)cc(O)c1` (centres undefined), the MRT is 7.14 h, the Vd was 6.03 L/kg, the clearance is 14.1 mL/min/kg and the half-life is 385 min. Moreover, the free fraction (fraction unbound) is 0.9.
Consider `CC(=O)O[C@H]1C[C@@]2(C)[C@@H](C[C@@H](O)[C@H]3[C@]4(C)CC[C@@H](O)[C@@H](C)[C@@H]4CC[C@]32C)/C1=C(/CCC=C(C)C)C(=O)O`, for which the MRT is 10.6 h, the distribution volume (Vd) is 0.23 L/kg, the clearance was 0.35 mL/min/kg and the half-life is 588 min. The fraction unbound was 0.02.
With `CN(CCC(=O)/C=C/c1ccc(O)cc1)CCc1ccc2c(c1)OCO2`, the MRT was 0.05 h, the Vd is 2.13 L/kg, the clearance was 713 mL/min/kg and the half-life is 6 min.
